From patent US9556143B2, “Metalloenzyme inhibitor compounds” (Viamet Pharmaceuticals, Inc., priority 2011, dated 2017) come the findings set out here.

Where only a bound is given, the exact number is not on record here.

This assay relates to Puccinia recondita tritici = Puccinia triticina (PUCCRT). Put plainly: Fungicidal activity vs. wheat leaf rust. The assay is classed as in vivo, Puccinia recondita tritici on wheat (variety Yuma). The note with it: % disease control @ 50 ppm, wheat seedlings sprayed, inoculated the following day, severity evaluated 7-9 days later, read-out: Puccinia Rating. The text has this:
D. Evaluation of Fungicidal Activity Vs. Leaf Rust (Causal Agent Puccinia recondita tritici=Puccinia triticina; Bayer code PUCCRT). […] Each pot contained 3-8 seedlings. These plants were sprayed until wet with the formulated test compounds. The compounds were formulated at 50 ppm in 10 vol. % acetone plus 90 vol. % Triton X water (deionized water 99.99 wt %+0.01 wt % Triton X100), giving a “formulated test compound.” Formulated test compounds were applied to plants using a turn table sprayer fitted with two opposing air atomization nozzles which delivered approximately 1500 L/ha of spray volume. On the following day, the leaves were inoculated with an aqueous spore suspension of Puccinia recondita tritici and the plants were kept in high humidity overnight to permit spores to germinate and infect the leaf. The plants were then transferred to a greenhouse until disease developed on untreated control plants. Disease severity was evaluated 7-9 days later, depending on the speed of disease development. In each case of Table 3, the Puccinia rating scale is as follows: […]

`OC(Cn1cnnn1)(c1ccc(F)cc1F)C(F)(F)c1ccccn1` (stereo not drawn) [2(−), 2-(2,4-Difluorophenyl)-1,1-difluoro-1-(pyridin-2-yl)-3-(1H-tetrazol-1-yl)propan-2-ol]: the pest or weed control at 50 ppm is 80 to 100%.
For the compound `OC(Cn1cnnn1)(c1ccc(F)cc1F)C(F)(F)c1ccc(Br)cn1` (stereo not drawn) [Compound 1, 1-(5-Bromopyridin-2-yl)-2-(2,4-difluorophenyl)-1,1-difluoro-3-(1H-tetrazol-1-yl)propan-2-ol], the pest or weed control at 50 ppm was in the range of 80 to 100%.
For the compound `OC(Cn1cnnn1)(c1ccc(F)cc1F)C(F)(F)c1ccc(/C=C/COCC(F)(F)F)cn1` (stereo not drawn) [Compound 6, (E)-2-(2,4-Difluorophenyl)-1,1-difluoro-3-(1H-tetrazol-1-yl)-1-(5-(3-(2,2,2-trifluoroethoxy)prop-1-en-1-yl)pyridin-2-yl)propan-2-ol], the pest or weed control at 50 ppm was below 40%.
Regarding `OC(Cn1cnnn1)(c1ccc(F)cc1F)C(F)(F)c1ccc(F)cn1` (stereo not drawn) [Compound 10, 2-(2,4-Difluorophenyl)-1,1-difluoro-1-(5-fluoropyridin-2-yl)-3-(1H-tetrazol-1-yl)propan-2-ol], the pest or weed control at 50 ppm was 80 to 100%.
Consider `OC(Cn1cnnn1)(c1ccc(F)cc1F)C(F)(F)c1ccc(CC(F)(F)F)cn1` (stereo not drawn) [Compound 17, 2-(2,4-Difluorophenyl)-1,1-difluoro-3-(1H-tetrazol-1-yl)-1-(5-(2,2,2-trifluoroethyl)pyridin-2-yl)propan-2-ol], for which the pest or weed control at 50 ppm lay in the range of 80 to 100%.
For the compound `OC(Cn1cnnn1)(c1ccc(F)cc1F)C(F)(F)c1ccc(C2CC2)cn1` (stereo not drawn) [Compound 18, 1-(5-Cyclopropylpyridin-2-yl)-2-(2,4-difluorophenyl)-1,1-difluoro-3-(1H-tetrazol-1-yl)propan-2-ol], the pest or weed control at 50 ppm lay within 80 to 100%.
With `OC(Cn1cnnn1)(c1ccc(Cl)cc1F)C(F)(F)c1ccc(Br)cn1` (stereo not drawn) [Compound 22, 1-(5-Bromopyridin-2-yl)-2-(4-chloro-2-fluorophenyl)-1,1-difluoro-3-(1H-tetrazol-1-yl)propan-2-ol], the pest or weed control at 50 ppm was 80 to 100%.
For the compound `Cc1ccc(C(F)(F)C(O)(Cn2cnnn2)c2ccc(F)cc2F)nc1` (stereo not drawn) [Compound 25, 2-(2,4-Difluorophenyl)-1,1-difluoro-1-(5-methylpyridin-2-yl)-3-(1H-tetrazol-1-yl)propan-2-ol], the pest or weed control at 50 ppm fell in the range of 80 to 100%.
For `OC(Cn1cnnn1)(c1ccc(Cl)cc1F)C(F)(F)c1ccc(Cl)cn1` (stereo not drawn) [Compound 26, 2-(4-Chloro-2-fluorophenyl)-1-(5-chloropyridin-2-yl)-1,1-difluoro-3-(1H-tetrazol-1-yl)propan-2-ol], the pest or weed control at 50 ppm was 80 to 100%.
The result for `OC(Cn1cnnn1)(c1ccc(Cl)cc1F)C(F)(F)c1ccc(F)cn1` (stereo not drawn) [Compound 27, 2-(4-Cloro-2-fluorophenyl)-1,1-difluoro-1-(5-fluoropyridin-2-yl)-3-(1H-tetrazol-1-yl)propan-2-ol] reads 80 to 100%.
For the compound `OC(Cn1cnnn1)(c1ccc(Cl)cc1F)C(F)(F)c1ccc(-n2nccn2)cn1` (stereo not drawn) [Compound 28, 1-(5-(2H-1,2,3-Triazol-2-yl)pyridin-2-yl)-2-(4-chloro-2-fluorophenyl)-1,1-difluoro-3-(1H-tetrazol-1-yl)propan-2-ol], the pest or weed control at 50 ppm is 80 to 100%.
The result for `OC(Cn1cncn1)(c1ccc(F)cc1F)C(F)(F)c1ccc(Cl)cn1` (stereo not drawn) [Compound 29, 1-(5-Chloropyridin-2-yl)-2-(2,4-difluorophenyl)-1,1-difluoro-3-(1H-1,2,4-triazol-1-yl)propan-2-ol] reads 80 to 100%; that for `COc1ccc(-c2ccc(C(F)(F)C(O)(Cn3cnnn3)c3ccc(F)cc3F)nc2)s1` (stereo not drawn) [Compound 32, 2-(2,4-Difluorophenyl)-1,1-difluoro-1-(5-(5-methoxythiophen-2-yl)pyridin-2-yl)-3-(1H-tetrazol-1-yl)propan-2-ol], 40 to 59%; that for `OC(Cn1cnnn1)(c1ccc(F)cc1F)C(F)(F)c1ccc(-c2ccc(C(F)F)s2)cn1` (stereo not drawn) [Compound 33, 1-(5-(5-(Difluoromethyl)thiophen-2-yl)pyridin-2-yl)-2-(2,4-difluorophenyl)-1,1-difluoro-3-(1H-tetrazol-1-yl)propan-2-ol], 80 to 100%.
In the case of `OC(Cn1cnnn1)(c1ccc(F)cc1F)C(F)(F)c1ccc(-c2ccc(C(F)(F)F)s2)cn1` (stereo not drawn) [Compound 34, 2-(2,4-Difluorophenyl)-1,1-difluoro-3-(1H-tetrazol-1-yl)-1-(5-(5-(trifluoromethyl)thiophen-2-yl)pyridin-2-yl)propan-2-ol], the pest or weed control at 50 ppm lay in the range of 80 to 100%.
With `OC(Cn1cnnn1)(c1ccc(F)cc1F)C(F)(F)c1ccc(-c2nccs2)cn1` (stereo not drawn) [Compound 38, 2-(2,4-Difluorophenyl)-1,1-difluoro-3-(1H-tetrazol-1-yl)-1-(5-(thiazol-2-yl)pyridin-2-yl)propan-2-ol], the pest or weed control at 50 ppm was 80 to 100%.
Regarding `OC(Cn1cnnn1)(c1ccc(Cl)cc1F)C(F)(F)c1ccc(CC(F)(F)F)cn1` (stereo not drawn) [Compound 39, 2-(4-Chloro-2-fluorophenyl)-1,1-difluoro-3-(1H-tetrazol-1-yl)-1-(5-(2,2,2-trifluoroethyl)pyridin-2-yl)propan-2-ol], the pest or weed control at 50 ppm lay in the range of 80 to 100%.
As to `OC(Cn1cnnn1)(c1ccc(Cl)cc1F)C(F)(F)c1ccc(C2CC2)cn1` (stereo not drawn) [Compound 40, 2-(4-Chloro-2-fluorophenyl)-1-(5-cyclopropylpyridin-2-yl)-1,1-difluoro-3-(1H-tetrazol-1-yl)propan-2-ol], the pest or weed control at 50 ppm was in the range of 80 to 100%.
The result for `OC(Cn1cnnn1)(c1ccc(F)cc1F)C(F)(F)c1ccc(CCCOCC(F)(F)F)cn1` (stereo not drawn) [Compound 45, 2-(2,4-Difluorophenyl)-1,1-difluoro-3-(1H-tetrazol-1-yl)-1-(5-(3-(2,2,2-trifluoroethoxy)propyl)pyridin-2-yl)propan-2-ol] reads 80 to 100%; that for `CCOC/C=C/c1ccc(C(F)(F)C(O)(Cn2cnnn2)c2ccc(F)cc2F)nc1` (stereo not drawn) [Compound 51, (E)-2-(2,4-Difluorophenyl)-1-(5-(3-ethoxyprop-1-en-1-yl)pyridin-2-yl)-1,1-difluoro-3-(1H-tetrazol-1-yl)propan-2-ol], below 40%.
Regarding `CCOC/C=C\c1ccc(C(F)(F)C(O)(Cn2cnnn2)c2ccc(F)cc2F)nc1` (stereo not drawn) [Compound 52, (Z)-2-(2,4-Difluorophenyl)-1-(5-(3-ethoxyprop-1-en-1-yl)pyridin-2-yl)-1,1-difluoro-3-(1H-tetrazol-1-yl)propan-2-ol], the pest or weed control at 50 ppm was below 40%.
The same measure for `CCOCCCc1ccc(C(F)(F)C(O)(Cn2cnnn2)c2ccc(F)cc2F)nc1` (stereo not drawn) [Compound 53, 2-(2,4-Difluorophenyl)-1-(5-(3-ethoxypropyl)pyridin-2-yl)-1,1-difluoro-3-(1H-tetrazol-1-yl)propan-2-ol]: 80 to 100%.
As to `CC(C)OC/C=C/c1ccc(C(F)(F)C(O)(Cn2cnnn2)c2ccc(F)cc2F)nc1` (stereo not drawn) [Compound 54, (E)-2-(2,4-Difluorophenyl)-1,1-difluoro-1-(5-(3-isopropoxyprop-1-en-1-yl)pyridin-2-yl)-3-(1H-tetrazol-1-yl)propan-2-ol], the pest or weed control at 50 ppm is below 40%.
The same measure for `OC(Cn1cnnn1)(c1ccc(F)cc1F)C(F)(F)c1ccc(CC2CC2)cn1` (stereo not drawn) [Compound 59, 1-(5-(Cyclopropylmethyl)pyridin-2-yl)-2-(2,4-difluorophenyl)-1,1-difluoro-3-(1H-tetrazol-1-yl)propan-2-ol]: 80 to 100%; for `OC(Cn1cnnn1)(c1ccc(Cl)cc1F)C(F)(F)c1ccc(CC2CC2)cn1` (stereo not drawn) [Compound 60, 7-(4-Chloro-fluorophenyl)-1-(5-(cyclopropylmethyl)pyridin-2-yl)-1,1-difluoro-3-(1H-tetrazol-1-yl)propan-2-ol]: 80 to 100%.
Consider `O=C(c1ccc(C(F)(F)F)cc1)c1ccc(C(F)(F)C(O)(Cn2cnnn2)c2ccc(F)cc2F)nc1` (stereo not drawn) [Compound 66, (6-(2-(2,4-Difluorophenyl)-1,1-difluoro-2-hydroxy-3-(1H-tetrazol-1-yl)propyl)pyridin-3-yl)(4-(trifluoromethyl)phenyl)methanone], for which the pest or weed control at 50 ppm fell in the range of 80 to 100%.
Consider `O=C(c1ccc(Cl)cc1)c1ccc(C(F)(F)C(O)(Cn2cnnn2)c2ccc(F)cc2F)nc1` (stereo not drawn) [Compound 67, (4-Chlorophenyl)(6-(2-(2,4-difluorophenyl)-1,1-difluoro-2-hydroxy-3-(1H-tetrazol-1-yl)propyl)pyridin-3-yl)methanone], for which the pest or weed control at 50 ppm lay within 80 to 100%.
Take `O=C(c1ccc(OCC(F)(F)F)cc1)c1ccc(C(F)(F)C(O)(Cn2cnnn2)c2ccc(F)cc2F)nc1` (stereo not drawn) [Compound 68, (6-(2-(2,4-Difluorophenyl)-1,1-difluoro-2-hydroxy-3-(1H-tetrazol-1-yl)propyl)pyridin-3-yl)(4-(2,2,2-trifluoroethoxy)phenyl)methanone]: the pest or weed control at 50 ppm lay within 80 to 100%.
As to `O=C(c1ccc(F)cc1)c1ccc(C(F)(F)C(O)(Cn2cnnn2)c2ccc(F)cc2F)nc1` (stereo not drawn) [Compound 69, (6-(2-(2,4-Difluorophenyl)-1,1-difluoro-2-hydroxy-3-(1H-tetrazol-1-yl)propyl)pyridin-3-yl)(4-fluorophenyl)methanone], the pest or weed control at 50 ppm was in the range of 80 to 100%.
On to `O=C(c1ccc(C(F)(F)C(O)(Cn2cnnn2)c2ccc(F)cc2F)nc1)c1ccc(Cl)c(F)c1` (stereo not drawn) [Compound 71, (4-Chloro-3-fluorophenyl)(6-(2-(2,4-difluorophenyl)-1,1-difluoro-2-hydroxy-3-(1H-tetrazol-1-yl)propyl)pyridin-3-yl)methanone], for which the pest or weed control at 50 ppm lay in the range of 80 to 100%.
